Test results reported in ChEMBL document CHEMBL1201861, “Genomics of Drug Sensitity in Cancer screening data, Wellcome Trust Sanger Institute”.

Tests used:
NCI-H596 = experiment: cells; assay type: functional, cell-based, Homo sapiens; settings: Homo sapiens, NCI-H596;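 also: growth inhibition of NCI-H596 cells, read out with a cell viability assay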
Description: SANGER: Inhibition of human NCI-H596 cell growth in a cell viability assay.

G-361 = experiment: cells; assay type: functional, cell-based, Homo sapiens; settings: Homo sapiens, G-361
IST-SL2 = experiment: cells; assay type: functional, cell-based, Homo sapiens; settings: Homo sapiens, IST-SL2;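 also: growth inhibition of human IST-SL2 cells, read out by a cell viability assay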
Description: SANGER: Inhibition of human IST-SL2 cell growth in a cell viability assay.

HOS = experiment: cells; assay type: functional, cell-based, Homo sapiens; settings: Homo sapiens, HOS;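 also: growth inhibition of human HOS cells, read out with a cell viability assay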
Description: SANGER: Inhibition of human HOS cell growth in a cell viability assay.

SNU-16 = experiment: cells; assay type: functional, cell-based, Homo sapiens; settings: Homo sapiens, SNU-16;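 also: growth inhibition of human SNU-16 cells, determined with a cell viability readout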
Description: SANGER: Inhibition of human NCI-SNU-16 cell growth in a cell viability assay.

NCI-H2170 = experiment: cells; assay type: functional, cell-based, Homo sapiens; settings: Homo sapiens, NCI-H2170;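 also: cell viability assay measuring growth inhibition of human NCI-H2170 cancer cells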
Description: SANGER: Inhibition of human NCI-H2170 cell growth in a cell viability assay.

HCC70 = experiment: cells; assay type: functional, cell-based, Homo sapiens; settings: Homo sapiens, HCC70;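 also: cell viability assay measuring how strongly the compound suppresses proliferation of HCC70 cells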
Description: SANGER: Inhibition of human HCC70 cell growth in a cell viability assay.

KYSE-450 = experiment: cells; assay type: functional, cell-based, Homo sapiens; settings: Homo sapiens, KYSE-450;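 also: cell growth inhibition measured by a viability assay in human KYSE-450 cells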
Description: SANGER: Inhibition of human KYSE-450 cell growth in a cell viability assay.

SNU-C1 = experiment: cells; assay type: functional, cell-based, Homo sapiens; settings: Homo sapiens, SNU-C1;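 also: growth inhibition of SNU-C1 human cells, read out by a cell viability assay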
Description: SANGER: Inhibition of human SNU-C1 cell growth in a cell viability assay.

TUR = experiment: cells; assay type: functional, cell-based, Homo sapiens; settings: Homo sapiens, TUR;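 also: growth inhibition of human TUR cells, read out with a cell viability assay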
Description: SANGER: Inhibition of human TUR cell growth in a cell viability assay.

DMS-273 = experiment: cells; assay type: functional, cell-based, Homo sapiens; settings: Homo sapiens, DMS-273
Description: SANGER: Inhibition of human DMS-273 cell growth in a cell viability assay.

NB1 = experiment: cells; assay type: functional, cell-based, Homo sapiens; settings: Homo sapiens, NB1;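 also: reduction of NB1 cell proliferation, read out with a viability assay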
Description: SANGER: Inhibition of human NB1 cell growth in a cell viability assay.

U-698-M = experiment: cells; assay type: functional, cell-based, Homo sapiens; settings: Homo sapiens, U-698-M
Description: SANGER: Inhibition of human U-698-M cell growth in a cell viability assay.

HEC-1 = experiment: cells; assay type: functional, cell-based, Homo sapiens; settings: Homo sapiens, HEC-1;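 also: growth inhibition of the cell line, read out with a cell viability assay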
Description: SANGER: Inhibition of human HEC-1 cell growth in a cell viability assay.

CESS = experiment: SANGER: Inhibition of human CESS cell growth in a cell viability assay.; assay type: functional, cell-based; settings: Homo sapiens, CESS
YAPC = experiment: cells; assay type: functional, cell-based, Homo sapiens; settings: Homo sapiens, YAPC;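 also: growth inhibition of YAPC cells, measured with a cell viability assay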
Description: SANGER: Inhibition of human YAPC cell growth in a cell viability assay.

NCCIT = experiment: SANGER: Inhibition of human NCCIT cell growth in a cell viability assay.; assay type: functional, cell-based; settings: Homo sapiens, NCCIT
COLO-680N = experiment: cells; assay type: functional, cell-based, Homo sapiens; settings: Homo sapiens, COLO-680N;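 also: cell viability assay used to measure inhibition of COLO-680N cell growth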
Description: SANGER: Inhibition of human COLO-680N cell growth in a cell viability assay.

MFE-280 = experiment: cells; assay type: functional, cell-based, Homo sapiens; settings: Homo sapiens, MFE-280;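 also: growth inhibition of MFE-280 cells, determined with a cell viability readout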
Description: SANGER: Inhibition of human MFE-280 cell growth in a cell viability assay.

CAL-27 = experiment: cells; assay type: functional, cell-based, Homo sapiens; settings: Homo sapiens, CAL-27;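 also: Viability-based readout, IC50 reflecting inhibition of CAL-27 cell growth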
Description: SANGER: Inhibition of human CAL-27 cell growth in a cell viability assay.

NCI-H358 = experiment: cells; assay type: functional, cell-based, Homo sapiens; settings: Homo sapiens, NCI-H358;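 also: growth inhibition of NCI-H358 human cells, read out with a cell viability assay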
Description: SANGER: Inhibition of human NCI-H358 cell growth in a cell viability assay.

HCC38 = experiment: cells; assay type: functional, cell-based, Homo sapiens; settings: Homo sapiens, HCC38;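 also: cell viability assay on the human HCC38 cell line, with IC50 marking the concentration that inhibits cell growth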
Description: SANGER: Inhibition of human HCC38 cell growth in a cell viability assay.

P12-Ichikawa = experiment: cells; assay type: functional, cell-based, Homo sapiens; settings: Homo sapiens, P12-Ichikawa
G-402 = experiment: cells; assay type: functional, cell-based, Homo sapiens; settings: Homo sapiens, G-402
Description: SANGER: Inhibition of human G-402 cell growth in a cell viability assay.

CHL-1 = experiment: cells; assay type: functional, cell-based, Homo sapiens; settings: Homo sapiens, CHL-1;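 also: cell growth inhibition, read out with a cell viability assay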
Description: SANGER: Inhibition of human CHL-1 cell growth in a cell viability assay.

RO82-W-1 = experiment: cells; assay type: functional, cell-based, Homo sapiens; settings: Homo sapiens, RO82-W-1;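 also: growth inhibition of human RO82-W-1 cells, measured with a cell viability assay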
Description: SANGER: Inhibition of human RO82-W-1 cell growth in a cell viability assay.

NCI-H1755 = experiment: cells; assay type: functional, cell-based, Homo sapiens; settings: Homo sapiens, NCI-H1755;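 also: cell viability readout used to measure growth inhibition of NCI-H1755 cells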
Description: SANGER: Inhibition of human NCI-H1755 cell growth in a cell viability assay.

LCLC-97TM1 = experiment: cells; assay type: functional, cell-based, Homo sapiens; settings: Homo sapiens, LCLC-97TM1;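 also: cell viability assay measuring growth inhibition of human LCLC-97TM1 cells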
Description: SANGER: Inhibition of human LCLC-97TM1 cell growth in a cell viability assay.

MDA-MB-453 = experiment: cells; assay type: functional, cell-based, Homo sapiens; settings: Homo sapiens, MDA-MB-453
Description: SANGER: Inhibition of human MDA-MB-453 cell growth in a cell viability assay.

FaDu = experiment: cells; assay type: functional, cell-based, Homo sapiens; settings: Homo sapiens, FaDu;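 also: cell viability readout of growth inhibition in FaDu cells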
Description: SANGER: Inhibition of human FADU cell growth in a cell viability assay.

DoTc2-4510 = experiment: cells; assay type: functional, cell-based, Homo sapiens; settings: Homo sapiens, DoTc2-4510
MDA-MB-231 = experiment: cells; assay type: functional, cell-based, Homo sapiens; settings: Homo sapiens, MDA-MB-231
Description: SANGER: Inhibition of human MDA-MB-231 cell growth in a cell viability assay.

MDA-MB-415 = experiment: cells; assay type: functional, cell-based, Homo sapiens; settings: Homo sapiens, MDA-MB-415
SCC-4 = experiment: cells; assay type: functional, cell-based, Homo sapiens; settings: Homo sapiens, SCC-4;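 also: growth inhibition of human SCC-4 cells, read out as cell viability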
Description: SANGER: Inhibition of human SCC-4 cell growth in a cell viability assay.

THP-1 = experiment: cells; assay type: functional, cell-based, Homo sapiens; settings: Homo sapiens, THP-1;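 also: growth inhibition of THP-1 cells, read out via a cell viability assay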
Description: SANGER: Inhibition of human THP-1 cell growth in a cell viability assay.

MC-CAR = experiment: cells; assay type: functional, cell-based, Homo sapiens; settings: Homo sapiens, MC-CAR;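 also: growth inhibition of the human MC-CAR cell line, read out by a cell viability assay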
Description: SANGER: Inhibition of human MC-CAR cell growth in a cell viability assay.

COLO-792 = experiment: cells; assay type: functional, cell-based, Homo sapiens; settings: Homo sapiens, COLO-792
Description: SANGER: Inhibition of human COLO-792 cell growth in a cell viability assay.

DU-145 = experiment: cells; assay type: functional, cell-based, Homo sapiens; settings: Homo sapiens, DU-145
Description: SANGER: Inhibition of human DU-145 cell growth in a cell viability assay.

CAMA-1 = experiment: cells; assay type: functional, cell-based, Homo sapiens; settings: Homo sapiens, CAMA-1;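 also: growth inhibition of CAMA-1 cells, read out with a cell viability assay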
Description: SANGER: Inhibition of human CAMA-1 cell growth in a cell viability assay.

NCI-H520 = experiment: cells; assay type: functional, cell-based, Homo sapiens; settings: Homo sapiens, NCI-H520;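 also: growth inhibition of NCI-H520 cells, measured by a cell viability assay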
Description: SANGER: Inhibition of human NCI-H520 cell growth in a cell viability assay.

DK-MG = experiment: cells; assay type: functional, cell-based, Homo sapiens; settings: Homo sapiens, DK-MG;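 also: growth inhibition of DK-MG cells, read out with a cell viability assay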
Description: SANGER: Inhibition of human DK-MG cell growth in a cell viability assay.

OVCAR-3 = experiment: cells; assay type: functional, cell-based, Homo sapiens; settings: Homo sapiens, OVCAR-3;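 also: growth inhibition of human OVCAR-3 cells, determined by a cell viability assay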
Description: SANGER: Inhibition of human OVCAR-3 cell growth in a cell viability assay.

NCI-H661 = experiment: cells; assay type: functional, cell-based, Homo sapiens; settings: Homo sapiens, NCI-H661;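 also: cell viability assay read-out, IC50 being the concentration that inhibits growth of the cells by half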
Description: SANGER: Inhibition of human NCI-H661 cell growth in a cell viability assay.

NCI-H889 = experiment: cells; assay type: functional, cell-based, Homo sapiens; settings: Homo sapiens, NCI-H889;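 also: cell growth inhibition of the cell line, read out with a viability assay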
Description: SANGER: Inhibition of human NCI-H889 cell growth in a cell viability assay.

EFO-27 = experiment: cells; assay type: functional, cell-based, Homo sapiens; settings: Homo sapiens, EFO-27;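 also: growth inhibition of EFO-27 cells, read out with a cell viability assay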
Description: SANGER: Inhibition of human EFO-27 cell growth in a cell viability assay.

A-431 = experiment: cells; assay type: functional, cell-based, Homo sapiens; settings: Homo sapiens, A-431;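 also: growth inhibition of A-431 cells, determined with a cell viability read-out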
Description: SANGER: Inhibition of human A431 cell growth in a cell viability assay.

With `Nc1ccn([C@@H]2O[C@H](CO)[C@@H](O)C2(F)F)c(=O)n1` [GEMCITABINE] the IC50 (NCI-H596) was 0.225 µM, the IC50 (G-361) was 0.0211 µM and the IC50 (IST-SL2) was < 0.004 µM. The IC50 (HOS) was < 0.004 µM, the IC50 (SNU-16) was > 1.02 µM and the IC50 (NCI-H2170) was 0.012 µM. For the same compound, the IC50 (HCC70) was > 1.02 µM, the IC50 (KYSE-450) was 0.00632 µM and the IC50 (SNU-C1) was > 1.02 µM. For the same compound, the IC50 (TUR) was 0.032 µM, the IC50 (DMS-273) was 0.00307 µM and the IC50 (NB1) was 0.488 µM. The IC50 (U-698-M) was 0.345 µM, the IC50 (HEC-1) was 0.124 µM and the IC50 (CESS) was 0.0232 µM. The IC50 (YAPC) was > 1.02 µM, the IC50 (NCCIT) was 0.176 µM and the IC50 (COLO-680N) was 0.0755 µM. The IC50 (MFE-280) was > 1.02 µM, the IC50 (CAL-27) was 0.0352 µM and the IC50 (NCI-H358) was 0.00716 µM. For the same compound, the IC50 (HCC38) was 0.0219 µM, the IC50 (P12-Ichikawa) was 0.0847 µM and the IC50 (G-402) was < 0.004 µM. For the same compound, the IC50 (CHL-1) was < 0.004 µM, the IC50 (RO82-W-1) was > 1.02 µM and the IC50 (NCI-H1755) was 0.718 µM. The IC50 (LCLC-97TM1) was < 0.004 µM, the IC50 (MDA-MB-453) was > 1.02 µM and the IC50 (FaDu) was 0.105 µM. For the same compound, the IC50 (DoTc2-4510) was < 0.004 µM, the IC50 (MDA-MB-231) was 0.0278 µM and the IC50 (MDA-MB-415) was > 1.02 µM. The IC50 (SCC-4) was 0.212 µM, the IC50 (THP-1) was 0.664 µM and the IC50 (MC-CAR) was 0.0116 µM. For the same compound, the IC50 (COLO-792) was > 1.02 µM, the IC50 (DU-145) was 0.00929 µM and the IC50 (CAMA-1) was 0.396 µM. For the same compound, the IC50 (NCI-H520) was 0.0188 µM, the IC50 (DK-MG) was > 1.02 µM and the IC50 (OVCAR-3) was > 1.02 µM. The IC50 (NCI-H661) was 0.104 µM, the IC50 (NCI-H889) was > 1.02 µM and the IC50 (EFO-27) was 0.00905 µM. The IC50 (A-431) was < 0.004 µM.
For `Oc1ccc2ccccc2c1SSc1c(O)ccc2ccccc12`, the IC50 (NCI-H596) was > 32 µM, the IC50 (G-361) was > 32 µM and the IC50 (IST-SL2) was 20.7 µM. For the same compound, the IC50 (HOS) was 4.5 µM, the IC50 (SNU-16) was > 32 µM and the IC50 (NCI-H2170) was > 32 µM. The IC50 (HCC70) was > 32 µM, the IC50 (KYSE-450) was > 32 µM and the IC50 (SNU-C1) was > 32 µM. The IC50 (TUR) was > 32 µM, the IC50 (DMS-273) was > 32 µM and the IC50 (NB1) was 21.9 µM. The IC50 (U-698-M) was 3.24 µM, the IC50 (HEC-1) was > 32 µM and the IC50 (CESS) was 12.4 µM. For the same compound, the IC50 (YAPC) was > 32 µM, the IC50 (NCCIT) was 29.8 µM and the IC50 (COLO-680N) was > 32 µM. The IC50 (MFE-280) was > 32 µM, the IC50 (CAL-27) was > 32 µM and the IC50 (NCI-H358) was > 32 µM. The IC50 (HCC38) was > 32 µM, the IC50 (P12-Ichikawa) was > 32 µM and the IC50 (G-402) was > 32 µM. The IC50 (CHL-1) was 11.9 µM, the IC50 (RO82-W-1) was > 32 µM and the IC50 (NCI-H1755) was > 32 µM. The IC50 (LCLC-97TM1) was > 32 µM, the IC50 (MDA-MB-453) was > 32 µM and the IC50 (FaDu) was > 32 µM. For the same compound, the IC50 (DoTc2-4510) was 10.5 µM, the IC50 (MDA-MB-231) was > 32 µM and the IC50 (MDA-MB-415) was > 32 µM. For the same compound, the IC50 (SCC-4) was > 32 µM, the IC50 (THP-1) was > 32 µM and the IC50 (MC-CAR) was 5.71 µM. The IC50 (COLO-792) was > 32 µM, the IC50 (DU-145) was 8.21 µM and the IC50 (CAMA-1) was > 32 µM. For the same compound, the IC50 (NCI-H520) was > 32 µM, the IC50 (DK-MG) was > 32 µM and the IC50 (OVCAR-3) was > 32 µM. The IC50 (NCI-H661) was > 32 µM, the IC50 (NCI-H889) was > 32 µM and the IC50 (EFO-27) was > 32 µM. The IC50 (A-431) was > 32 µM.
In the case of `O=C(O)c1ccc(-c2c[nH]c3ncc(-c4ccccc4)cc23)cc1C1CCCC1` [GSK-650394], the IC50 (NCI-H596) is reported as > 16 µM, the IC50 (G-361) is reported as 3.72 µM and the IC50 (IST-SL2) is reported as 4.83 µM. For the same compound, the IC50 (HOS) was 1.97 µM, the IC50 (SNU-16) was > 16 µM and the IC50 (NCI-H2170) was > 16 µM. For the same compound, the IC50 (HCC70) was > 16 µM, the IC50 (KYSE-450) was 5.6 µM and the IC50 (SNU-C1) was > 16 µM. The IC50 (TUR) was 4.67 µM, the IC50 (DMS-273) was > 16 µM and the IC50 (NB1) was > 16 µM. The IC50 (U-698-M) was > 16 µM, the IC50 (HEC-1) was > 16 µM and the IC50 (CESS) was > 16 µM. For the same compound, the IC50 (YAPC) was > 16 µM, the IC50 (NCCIT) was > 16 µM and the IC50 (COLO-680N) was > 16 µM. For the same compound, the IC50 (MFE-280) was > 16 µM, the IC50 (CAL-27) was 5.33 µM and the IC50 (NCI-H358) was 6.25 µM. For the same compound, the IC50 (HCC38) was > 16 µM, the IC50 (P12-Ichikawa) was > 16 µM and the IC50 (G-402) was 9.13 µM. The IC50 (CHL-1) was 3.5 µM, the IC50 (RO82-W-1) was > 16 µM and the IC50 (NCI-H1755) was > 16 µM. For the same compound, the IC50 (LCLC-97TM1) was 1.37 µM, the IC50 (MDA-MB-453) was > 16 µM and the IC50 (FaDu) was > 16 µM. For the same compound, the IC50 (DoTc2-4510) was > 16 µM, the IC50 (MDA-MB-231) was > 16 µM and the IC50 (MDA-MB-415) was > 16 µM. For the same compound, the IC50 (SCC-4) was > 16 µM, the IC50 (THP-1) was > 16 µM and the IC50 (MC-CAR) was > 16 µM. The IC50 (COLO-792) was > 16 µM, the IC50 (DU-145) was > 16 µM and the IC50 (CAMA-1) was > 16 µM. For the same compound, the IC50 (NCI-H520) was > 16 µM, the IC50 (DK-MG) was > 16 µM and the IC50 (OVCAR-3) was > 16 µM. For the same compound, the IC50 (NCI-H661) was > 16 µM, the IC50 (NCI-H889) was > 16 µM and the IC50 (EFO-27) was 15.4 µM. For the same compound, the IC50 (A-431) was 1.86 µM.
